PMC10107299, “Neutralizing the Impact of the Virulence Factor LecA from Pseudomonas aeruginosa on Human Cells with New Glycomimetic Inhibitors” (Angewandte Chemie (International Ed. in English), 2023)

Test: Thermodynamic solubility in TBS/Ca2+ buffer
Type: physicochemical
Text: Next, we quantified the solubility of at least one representative of each new class and of one parent bisacylhydrazone in aqueous media (Table 1).

O=C(CCc1ccc(O[C@@H]2O[C@H](CO)[C@H](O)[C@H](O)[C@H]2O)cc1)Nc1ccc(CCc2ccc(NC(=O)CCc3ccc(O[C@@H]4O[C@H](CO)[C@H](O)[C@H](O)[C@H]4O)cc3)cc2S(=O)(=O)O)c(S(=O)(=O)O)c1 [Compound L2]
solubility (TBS/Ca2+ buffer, pH 7.4, thermodynamic from solid, aqueous buffer, from solid, read-out: Solubility S (dissolved from solid form in aqueous buffer)): > 1500 µM
Increase in solubility versus parent bisacylhydrazones (pH 7.4): over 1000 fold
solubility thermodynamic (pH 7.4, aqueous buffer, thermodynamic from solid, TBS/Ca2+ buffer w/o DMSO, N=1, read-out: Solubility S (thermodynamic)): > 1500 µM
